# Results: US20200317642A1, “AMINE-SUBSTITUTED HETEROCYCLIC COMPOUNDS AS EHMT2 INHIBITORS AND DERIVATIVES THEREOF” (Epizyme, Inc., priority 2017, published 2020)
# Target: T1, human EHMT2 913-1193 (Homo sapiens, UniProt Q96KQ7)
# T1 construct: recombinant purified human EHMT2 913-1193, Viva; purchased Viva
# T1 sequence (Q96KQ7 913-1193): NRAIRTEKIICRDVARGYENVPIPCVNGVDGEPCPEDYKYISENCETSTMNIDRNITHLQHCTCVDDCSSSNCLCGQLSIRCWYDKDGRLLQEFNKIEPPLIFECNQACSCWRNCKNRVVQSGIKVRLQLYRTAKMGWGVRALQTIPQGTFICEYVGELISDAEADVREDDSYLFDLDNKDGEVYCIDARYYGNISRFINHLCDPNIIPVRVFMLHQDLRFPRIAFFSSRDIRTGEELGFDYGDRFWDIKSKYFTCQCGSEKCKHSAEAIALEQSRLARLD
# Assay: EHMT2 enzyme assay on histone peptide substrate
# Format: biochemical
# Details: Table 3; histone H3 1-15 peptide, balanced conditions; read-out: EHMT2 PEP (IC50 μM)
# Source text: Recombinant purified human EHMT2 913-1193 ([…]) synthesized by Viva was used for all experiments. Biotinylated histone peptides were synthesized by Biopeptide and HPLC-purified to >95% purity. Streptavidin Flashplates and seals were purchased from PerkinElmer and 384 Well V-bottom Polypropylene Plates were from Greiner. ^3H-labeled S-adenosylmethionine (^3H-SAM) was obtained from American Radiolabeled Chemicals with a specific activity of 80 Ci/mmol. Unlabeled SAM and S-adenosylhomocysteine (SAH) were obtained from American Radiolabeled Chemicals and Sigma-Aldrich respectively. Flashplates were washed in a Biotek ELx-405 with 0.1% Tween. 384-well Flashplates and 96-well filter binding plates were read on a TopCount microplate reader (PerkinElmer). Compound serial dilutions were performed on a Freedom EVO (Tecan) and spotted into assay plates using a Thermo Scientific Matrix PlateMate (Thermo Scientific). Reagent cocktails were added by Multidrop Combi (Thermo Scientific).
# 10-point curves of test compounds were made on a Freedom EVO (Tecan) using serial 3-fold dilutions in DMSO, beginning at 2.5 mM (final top concentration of compound was […] and the DMSO was 2%). A 1 μL aliquot of the inhibitor dilution series was spotted in a polypropylene 384-well V-bottom plate (Greiner) using a Thermo Scientific Matrix PlateMate (Thermo Scientific). The 100% inhibition control consisted of 1 mM final concentration of the product inhibitor S-adenosylhomocysteine (SAH, Sigma-Aldrich). Compounds were incubated for 30 minutes with 40 μL per well of 0.031 nM EHMT2 (recombinant purified human EHMT2 913-1193, Viva) in 1× assay buffer (20 mM Bicine [pH 7.5], 0.002% Tween 20, 0.005% Bovine Skin Gelatin and 1 mM TCEP). 10 μL per well of substrate mix comprising assay buffer, ^3H-SAM (^3H-labeled S-adenosylmethionine, American Radiolabeled Chemicals, specific activity of 80 Ci/mmol), unlabeled SAM (American Radiolabeled Chemicals), and peptide representing histone H3 residues 1-15 containing C-terminal biotin (appended to a C-terminal amide-capped lysine, synthesized by Biopeptide and HPLC-purified to greater than 95% purity) were added to initiate the reaction (both substrates were present in the final reaction mixture at their respective Km values, an assay format referred to as “balanced conditions”). Reactions were incubated for 60 minutes at room temperature and quenched with 10 μL per well of 400 μM unlabeled SAM, then transferred to a 384-well streptavidin Flashplate (PerkinElmer) and washed in a Biotek ELx-405 well washer with 0.1% Tween after 60 minutes. 384-well Flashplates were read on a TopCount microplate reader (PerkinElmer).
row,IC50 [µM],SMILES
1,0.1 to 1,CNc1cc(C)nc(Nc2ccc(OC)c(CN[C@@H](C)CN3CCCC3)c2)n1 [Compound 47]
2,> 10,CNc1cc(C)nc(Nc2ccc(C)c(C(=O)Nc3cc(C#N)ccn3)c2)n1 [Compound 30]

# Same assay, conditions: Table 3A; histone H3 1-15 peptide, balanced conditions; read-out: EHMT2 (IC50 μM)
row,IC50 [µM],SMILES
1,0.01 to 0.1,CNCc1cn(-c2c(OC)cc3c(c2F)N=C(NC)C32CCC2)nn1 [Compound A21]
2,< 0.01,CNc1cc(C)nc(Nc2ccc(Cl)c(-n3cc(CN)cn3)c2Cl)n1 [Compound A6]
3,0.01 to 0.1,CNc1cc(C)nc(Nc2ccc(OC)c(-n3cc(C4CCCN4)nn3)c2F)n1 (centres unmarked) [Compound A4]
4,0.1 to 1,CNc1cc(C)nc(Nc2ccc(OC)c(-n3cc([C@@H]4CCCN4)nn3)c2F)n1 [Compound A4S]
5,0.1 to 1,"CNc1cc(C)nc(Nc2ccc(OC)c(-n3ncc4c3CCNC4)c2F)n1 [Compound A9, N2-(2-fluoro-4-methoxy-3-(4,5,6,7-tetrahydro-1H-pyrazolo[4,3-c]142yridine-1-yl)phenyl)-N4,6-dimethylpyrimidine-2,4-diamine]"
6,0.01 to 0.1,"CNCc1cn(-c2c(OC)ccc(Nc3nc(C)cc(NC)n3)c2F)nn1 [Compound A3, N2-(2-fluoro-4-methoxy-3-[4-[(methylamino)methyl]-1H-1,2,3-triazol-1-yl]phenyl)-N4,6-dimethylpyrimidine-2,4-diamine]"
